Assay results reported in PubChem BioAssay (NCI).
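A five-concentration, 48-hour dose response in 96-well plates underlies each endpoint, interpolated linearly between surrounding concentrations. GI50: concentration for 50% inhibition of growth. TGI marks complete inhibition of growth.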

Tests used:
Assay in all cases: inhibition of tumour cell growth, NCI panel, 48 h
HCT-15 colon = system: HCT-15 colon
HOP-62 NSCLC = system: HOP-62 NSCLC
IGROV1 ovarian = system: IGROV1 ovarian
K-562 leukemia = system: K-562 leukemia
M14 melanoma = system: M14 melanoma
NCI-H522 lung = system: NCI-H522 lung
OVCAR-8 ovarian = system: OVCAR-8 ovarian
UACC-62 melanoma = system: UACC-62 melanoma
HS 578T breast = system: HS 578T breast
OVCAR-5 ovarian = system: OVCAR-5 ovarian

SMILES	TGI (HCT-15 colon) [µM]	TGI (HOP-62 NSCLC) [µM]	TGI (IGROV1 ovarian) [µM]	TGI (K-562 leukemia) [µM]	TGI (M14 melanoma) [µM]	TGI (NCI-H522 lung) [µM]	TGI (OVCAR-8 ovarian) [µM]	TGI (UACC-62 melanoma) [µM]	GI50 (HCT-15 colon) [µM]	GI50 (HOP-62 NSCLC) [µM]	GI50 (HS 578T breast) [µM]	TGI (HS 578T breast) [µM]	GI50 (IGROV1 ovarian) [µM]	GI50 (K-562 leukemia) [µM]	GI50 (NCI-H522 lung) [µM]	GI50 (OVCAR-5 ovarian) [µM]	TGI (OVCAR-5 ovarian) [µM]	GI50 (OVCAR-8 ovarian) [µM]	GI50 (UACC-62 melanoma) [µM]	GI50 (M14 melanoma) [µM]
COc1cc([C@@H]2OC(=O)C3C2C(=O)O[C@H]3c2cc(OC)c(OC)c(OC)c2)cc(OC)c1OC (stereo not given in full)	> 100	> 100	> 100	> 100	> 100	> 100	> 100	> 100												
CCCN(CCC)C(=O)[C@H](CC)[C@@H]1CC[C@@H](C)[C@@H]([C@H](C)[C@@H](O)[C@@H](C)C(=O)[C@H](CC)C2O[C@]3(C=C[C@@H](O)[C@]4(CC[C@@](C)([C@H]5CC[C@](O)(CC)[C@H](C)O5)O4)O3)[C@H](C)C[C@@H]2C)O1 (stereo not given in full)	5.61	13.6	10.5	13		4.56	24.6	4.93	2.24	3.33	2.75	9.01	2.59	2.68	1.82	2.09	5.27	3.5	1.71	
N#CC(C#N)=C1SCC(=O)CS1	> 100	> 100	> 100	> 100	> 100	> 100	> 100	> 100									> 100			
COc1cc([N+](=O)[O-])c(OC)cc1-c1nc2sc(Cl)cn2c1/C=N/NC(=N)N/N=C/c1c(-c2cc(OC)c([N+](=O)[O-])cc2OC)nc2sc(Cl)cn12	22.5				3.36				4.54							1.71	3.16			1.91
CC1=C(C(=O)Nc2ccc(F)c(Cl)c2)C(c2cccc(Oc3ccccc3)c2)NC(=O)N1 (stereo not given)	28.9	29.2	24.2		29.3	29.4	43.7	24.8	15.4	15.4	12.2	32.9	10.7		14.9	14.9	28.2	18	12.4	15.2
N#C[S-].[Au+].c1ccc(CN2[CH-]N(Cc3ccccc3)C(c3ccccc3)=C2c2ccccc2)cc1											0.744	4.62				1.21	3.28			
CCOC(=O)NC(=O)c1cn(CCN2CCN(C(=O)NCCCCCCNC(=O)N3CCN(CCn4cc(C(=O)NC(=O)OCC)c(=O)n(CCN(CC)CC)c4=O)CC3)CC2)c(=O)n(CCC(CC)CC)c1=O	> 100	> 100	> 100	> 100	> 100	> 100	> 100	> 100									> 100			
C[CH2][Sn]([Cl])([Cl])[CH2]C	> 60.9	> 100	> 100	> 69	57.7	2.67	> 100	47.8	> 43.2	> 100			> 100	18.6	1.16	> 100	> 100	> 100	22	24.1
C=C(C)[C@H](O)C(O)CC(C)[C@@H]1CCC23CC12CCC1[C@@]2(C)CCC(OC(C)=O)C(C)(C)C2CC(OC2OC(COC(C)=O)C(O)C(O)C2O)[C@]13C (stereo not given in full)	10.4	13.2	9.54	10.8	9.11	9.91	12.8	9.4									13.9			
O=C1CCCC1NC(=O)C(F)(F)F (stereo not given)		> 100	> 100	> 100	> 100	> 100	> 100	> 100									> 100			
CC1/C(=N/Nc2ccc([N+](=O)[O-])cc2)CC2C3(C)CCC2(C(C)C(=O)O)C(=O)C13 (stereo not given)	> 100	> 100	> 100		> 100	> 100	> 100	> 100	4.22	95	3.55	> 100	> 100		4.48	> 100	> 100	8.17	6.51	11.2
Clc1ccc(SCCCCCCCCCCSc2ccc(Cl)cc2)cc1	> 75.9	> 100	> 100	> 100	> 100	> 100	> 80.1	> 100									> 78.3			
c1ccc(SC(CCCCOC2CCCCO2)Sc2ccccc2)cc1 (stereo not given)	> 100	> 100	> 100	> 100	> 100	53.8	> 100	> 100									> 100			
Cc1cccc2c1C(=O)OC2(C)c1cccc2ccccc12 (stereo not given)	> 100			> 100	40.7	40.4	> 100										> 100			
CC(=O)c1c[nH]cc1CO	> 10	> 10	> 10	> 10	> 10		> 10										> 10			
COc1ccc2c(c1)CC1c3c(cc4c(c3-2)OCO4)CCN1C (stereo not given)	> 100	96.7	85.8	> 100	62.9	38.7	70.4	47.6									> 100			
C=CCN=C1NC(=O)C(CC(=O)Nc2ccc(C)cc2)S1 (stereo not given)	> 100	> 100	> 100	> 100	> 100	> 100	> 100	> 100									> 100			
Cc1cccc2c1C/C(=C1\CCc3c(C)cccc31)C2=O	> 100	> 100	> 100	> 100	> 100		> 100	> 100									> 100			
O=C(N/C(=C\c1ccc(Oc2ccc(Cl)c(Cl)c2)cc1)c1nc2ccccc2[nH]1)c1ccccc1	66.6			59.6	34.8	35.5	28.6	33.5									67.9			
NC(CCSC(F)F)C(=O)O (stereo not given)		> 100	> 100	> 100	> 100	> 100	> 100	> 100									> 100			
CCOc1ccccc1NC(=O)C1=C(C)NC(C)=C(C(=O)Nc2ccccc2OCC)C1c1ccc(NC(C)=O)cc1		49	> 100	> 100	> 100	23.6	> 100										> 100			

SMILES	TGI (HCT-15 colon) [µM]	TGI (HOP-62 NSCLC) [µM]	TGI (IGROV1 ovarian) [µM]	TGI (K-562 leukemia) [µM]	TGI (M14 melanoma) [µM]	TGI (NCI-H522 lung) [µM]	TGI (OVCAR-8 ovarian) [µM]	TGI (UACC-62 melanoma) [µM]	GI50 (HCT-15 colon) [µM]	GI50 (HOP-62 NSCLC) [µM]	GI50 (HS 578T breast) [µM]	TGI (HS 578T breast) [µM]	GI50 (IGROV1 ovarian) [µM]	GI50 (K-562 leukemia) [µM]	GI50 (NCI-H522 lung) [µM]	GI50 (OVCAR-5 ovarian) [µM]	TGI (OVCAR-5 ovarian) [µM]	GI50 (OVCAR-8 ovarian) [µM]	GI50 (UACC-62 melanoma) [µM]	GI50 (M14 melanoma) [µM]
CC1=Nn2c(nnc2-c2ccc(N)cc2)NC(C)(C)C1	> 100	> 100	> 100	> 100	> 100	> 100		> 100									> 100			
COc1cc(/C=C2/C(=O)NC(Cc3cc(OC)c(OC)c(C)c3OC)C(=O)N2Cc2ccccc2)c(OC)c(C)c1OC (stereo not given)		> 100	> 100	> 100	> 100	60.2	> 100	> 100									> 100			
COc1ccc2c(c1)OC(N)=C(C#N)C2c1ccc(F)cc1 (stereo not given)	51.6	> 100	> 100		44.2	27.1	> 100	> 100	0.515	0.986	3.84	> 100	2.38		0.604	14.5	> 100	4.49	0.571	0.529
Cc1cc(=O)oc2cc(OCc3nc4ccccc4c(=O)[nH]3)ccc12	> 100	> 100	> 100	> 100	> 100	> 100	> 100	> 100									> 100			
COc1cc2cccc(NC(=O)c3cc(OC)c(OC)c(OC)c3Br)c2cc1OC		42.3	44.6	46.6	23.5	42.1	85.4	26.1									51.9			
CS/C(c1ccccc1)=[N+](/C)[O-]	41.1	> 100	> 100	> 100	> 100	> 100	> 100	> 100									> 100			
S=C(Nc1ccccc1)N(Cc1ccccc1)c1ccccc1	> 100	> 100	> 100	> 100	> 100	62.3		70.7				> 100					> 100			
O=C1C[C@H]2CC3(CC[C@H]2CN1)OCCO3	> 100	> 100	> 100	> 100	> 100	> 100	> 100	> 100												
CN(C)c1ccc(O)c2c1C[C@H]1C[C@H]3[C@H](N(C)C)C(=O)C(C(N)=O)=C(O)[C@@]3(O)C(=O)C1=C2O	94	71.5	27.8		65.9		> 100	16.9	4.02	4.01	3.36	34.2	3.42			15.5	88.8	5.11	3.35	5.09
O=C(CN1C(=O)c2ccccc2C1=O)C(O)CN1C(=O)c2ccccc2C1=O (stereo not given)	> 100	41.9	> 100		> 100	> 100	> 100	> 100				> 100					> 100			
Cc1ccc(C2=C(c3ccccc3)C(Br)(c3ccccc3)C(c3ccccc3)=C2c2ccc(C)cc2)cc1	> 100	> 100	> 100	> 100	> 100	> 100	> 100	> 100									> 100			
COC(=O)C(CC(=O)Nc1ccc(Cl)c(Cl)c1)C(=O)C(=O)NC1C2CC3CC(C2)CC1C3 (stereo not given)	> 100	> 100	> 100	> 100	> 100	> 100	> 100	> 100									> 100			
Cn1c(=O)c(C(=O)NC(=O)OCc2ccccc2)cn(CCSCCOC(=O)NCCCCCCNC(=O)OCCSCCn2cc(C(=O)NC(=O)OCc3ccccc3)c(=O)n(C)c2=O)c1=O	> 100	> 100	> 100	> 100	> 100	> 100	> 100	> 100									> 100			
CC(C)CCc1c(Cl)nc(Cl)nc1Cl	> 100	30.4	37.5	> 100	15.3	9.89		24.7				56.8					55			
Cc1ccc(N2C(=O)/C(=C/c3ccc(N(CCC#N)CCC#N)cc3C)N=C2c2cc([N+](=O)[O-])ccc2Cl)cc1	> 100	> 100	> 100	> 100	> 100	> 100	> 100	> 100									> 100			
C[CH2][Sn]([CH2]C)([O]C(=O)c1cccc(F)c1)[O][Sn]([CH2]C)([CH2]C)[O]C(=O)c1cccc(F)c1	43.3	> 100	> 100	93.4	31.3	2.65	32.3	32.7	21	37.3			> 100	18	1.32	25.4	50.9	17.5	18.4	16.9
Cc1ccc(/C=C2\CCCC\C2=N\O)cc1	> 100	> 100	> 100	> 100	> 100		> 100	> 100												
CC12CC3CC(C1)CC(N=[N+]=[N-])(C3)C2		> 100	> 100	> 100	> 100	> 100	> 100	> 100									> 100			
O=C(/C=C1/NC(=O)CS1)Nc1ccccc1		> 100	> 100	> 100	> 100	> 100	> 100	> 100									> 100			
O=C1C[C@@H]2CCCC[C@@H]2C12SCCS2	> 100	> 100	> 100	> 100		> 100	> 100	> 100									> 100			
